Experimental data from ChEMBL document CHEMBL6153133, “Discovery of Diphenyl Ether Derivatives as Novel BKCa Channel Activators: Structure-Activity Relationship, Cryo-EM Complex Structures, and In Vivo Animal Studies” (J Med Chem, 2025).
The source made the active and inactive calls. The rule behind the calls is not given here.

How the values were obtained:
[1] = tested on: Calcium-activated potassium channel subunit alpha-1 (Homo sapiens), Q12791 [UNDEFINED MUTATION]; assay: (§1) Activation of hyperactive human BKca channel G803D/N806K mutant transfected in human AD-293 cells assessed as maximum relative fluorescence value at 5 uM preincubated for 15 mins followed by Tl+ stimulus buffer addition and measured after 80 sec by Flexstation3 multimode microplate reader analysis relative to control; type: cell-based; details: time 980.0 sec
Sequence of Calcium-activated potassium channel subunit alpha-1 (Homo sapiens), Q12791 [UNDEFINED MUTATION] (Q12791 whole entry, looked up, stated change not applied): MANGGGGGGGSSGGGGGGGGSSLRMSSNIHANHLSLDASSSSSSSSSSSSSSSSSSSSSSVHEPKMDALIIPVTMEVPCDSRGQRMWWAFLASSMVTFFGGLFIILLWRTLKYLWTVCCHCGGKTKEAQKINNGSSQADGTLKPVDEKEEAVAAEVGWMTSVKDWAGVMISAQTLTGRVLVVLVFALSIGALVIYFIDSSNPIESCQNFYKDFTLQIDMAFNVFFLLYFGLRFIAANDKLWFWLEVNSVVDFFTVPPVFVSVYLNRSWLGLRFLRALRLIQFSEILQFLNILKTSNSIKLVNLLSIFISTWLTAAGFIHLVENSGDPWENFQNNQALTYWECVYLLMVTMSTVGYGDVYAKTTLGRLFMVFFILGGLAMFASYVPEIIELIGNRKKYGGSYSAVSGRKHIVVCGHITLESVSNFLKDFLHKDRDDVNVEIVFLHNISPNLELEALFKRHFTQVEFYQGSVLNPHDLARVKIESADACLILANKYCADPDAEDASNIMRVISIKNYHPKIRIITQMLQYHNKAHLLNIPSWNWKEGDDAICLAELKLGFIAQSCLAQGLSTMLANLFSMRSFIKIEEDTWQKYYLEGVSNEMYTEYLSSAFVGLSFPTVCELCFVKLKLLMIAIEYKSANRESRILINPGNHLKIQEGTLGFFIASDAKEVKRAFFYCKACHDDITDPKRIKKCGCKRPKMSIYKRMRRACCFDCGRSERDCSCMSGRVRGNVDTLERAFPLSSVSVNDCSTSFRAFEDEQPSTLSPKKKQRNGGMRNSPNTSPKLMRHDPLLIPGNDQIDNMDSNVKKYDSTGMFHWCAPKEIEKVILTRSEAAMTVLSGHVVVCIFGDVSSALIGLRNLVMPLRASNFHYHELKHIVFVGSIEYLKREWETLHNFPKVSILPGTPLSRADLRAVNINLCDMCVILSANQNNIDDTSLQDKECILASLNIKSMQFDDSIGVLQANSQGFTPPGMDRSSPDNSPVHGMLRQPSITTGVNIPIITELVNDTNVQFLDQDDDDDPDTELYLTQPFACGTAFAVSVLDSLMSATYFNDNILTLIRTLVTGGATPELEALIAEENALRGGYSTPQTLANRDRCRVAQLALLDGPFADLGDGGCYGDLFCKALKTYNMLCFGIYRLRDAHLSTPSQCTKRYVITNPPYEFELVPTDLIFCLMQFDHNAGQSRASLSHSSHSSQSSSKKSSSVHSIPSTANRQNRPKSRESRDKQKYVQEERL

[2] = tested on: Calcium-activated potassium channel subunit alpha-1 (Homo sapiens), Q12791 [UNDEFINED MUTATION]; assay: as §1, with “at 1” for “at 5”; type: cell-based; details: time 980.0 sec
[3] = Metabolic stability in rat liver microsomes assessed as parent compound remaining at 1 uM preincubated for 5 mins followed by NADPH addition and measured after 30 mins by LC-MS/MS analysis; type: ADME, Microsome; details: read-out: Stability
[4] = Metabolic stability in human liver microsomes assessed as parent compound remaining at 1 uM preincubated for 5 mins followed by NADPH addition and measured after 30 mins by LC-MS/MS analysis; type: ADME, Microsome; details: read-out: Stability
[5] = biological target: Calcium-activated potassium channel subunit alpha-1 (Homo sapiens, UniProt Q12791, G803D/N806K); assay: (§2) Activation of hyperactive human BKca channel G803D/N806K mutant transfected in human AD-293 cells incubated for 15 mins by Flexstation3 multimode microplate reader analysis; type: cell-based
Sequence of Calcium-activated potassium channel subunit alpha-1 (Homo sapiens, UniProt Q12791, G803D/N806K) (Q12791 whole entry, looked up, stated change not applied): as above

[6] = tested on: Calcium-activated potassium channel subunit alpha-1 (Homo sapiens), Q12791 [UNDEFINED MUTATION]; assay: as §2; type: cell-based
[7] = biological target: T1, Calcium-activated potassium channel subunit alpha-1 (Homo sapiens, UniProt Q12791); assay: Activation of BKca channel (unknown origin) by cell based method
T1 sequence (Q12791 whole entry): as the sequence (Q12791 whole entry, looked up, stated change not applied) above

[8] = biological target: T1, Calcium-activated potassium channel subunit alpha-1; assay: Activation of BKca channel (unknown origin) by cell-based fluorescence assay
[9] = AUClast in male Sprague-Dawley rat at 10 mg/kg, po by LC-MS/MS analysis; type: ADME, organism-based; details: in vivo
[10] = Cmax in male Sprague-Dawley rat at 10 mg/kg, po by LC-MS/MS analysis; type: ADME, organism-based; details: in vivo
[11] = Clearance in male Sprague-Dawley rat at 10 mg/kg, iv by LC-MS/MS analysis; type: ADME, organism-based; details: in vivo
[12] = AUClast in male Sprague-Dawley rat at 10 mg/kg, iv by LC-MS/MS analysis; type: ADME, organism-based; details: in vivo
[13] = Tmax in male Sprague-Dawley rat at 10 mg/kg, po by LC-MS/MS analysis; type: ADME, organism-based; details: in vivo
[14] = Half-life in male Sprague-Dawley rat at 10 mg/kg, iv by LC-MS/MS analysis; type: ADME, organism-based; details: in vivo
[15] = Oral bioavailability in male Sprague-Dawley rat at 10 mg/kg by LC-MS/MS analysis; type: ADME, organism-based; details: in vivo
[16] = Volume of distribution at steady state in male Sprague-Dawley rat at 10 mg/kg, iv by LC-MS/MS analysis; type: ADME, organism-based; details: in vivo, read-out: Vdss
[17] = Half-life in male Sprague-Dawley rat at 10 mg/kg, po by LC-MS/MS analysis; type: ADME, organism-based; details: in vivo
[18] = Metabolic stability in human liver microsomes assessed as parent compound remaining at 1 uM preincubated for 15 mins followed by UDPGA addition and measured after 60 mins by LC-MS/MS analysis; type: ADME, Microsome; details: time 75 min, read-out: Stability
[19] = Metabolic stability in rat liver microsomes assessed as parent compound remaining at 1 uM preincubated for 15 mins followed by UDPGA addition and measured after 60 mins by LC-MS/MS analysis; type: ADME, Microsome; details: time 75 min, read-out: Stability
[20] = Permeability of compound at pH 7.4 measured after 4 hrs by GIT-PAMPA assay; type: ADME; details: read-out: permeability
Rattus norvegicus [21] = assay: Reversal of urinary incontinence in male spontaneous hypertensive rat model assessed as decrease in urine frequency at 100 mg/kg, po measured after 3 hrs relative to control; type: functional; set-up: scale not given: the % may be the effect or the level left
Rattus norvegicus [22] = assay: Reversal of urinary incontinence in male spontaneous hypertensive rat model assessed as decrease in urine volume at 100 mg/kg, po measured after 3 hrs relative to control; type: functional; set-up: scale not given: the % may be the effect or the level left
[23] = Toxicity in male spontaneous hypertensive rat model at 100 mg/kg, po; type: organism-based; details: in vivo
[24] = Activation of rat BKca channel extracted from Xenopus laevis Oocytes by patch-clamp electrophysiology recordings; type: cell-based; details: Oocyte

Oc1ccc(Oc2ccc(Cl)c(C(F)(F)F)c2)c(O)c1
Activity ([1]; filed as opener): 74.7%

Nc1ccc(Oc2c(F)c(F)c(C(F)(F)F)c(F)c2F)c(F)c1
Activity [2]: 17.9% | Activity ([1]; filed as opener): 83% | remaining at 0.5 h, 1 µM [3]: 12.7% | remaining at 0.5 h, 1 µM [4]: 14.8% | EC50 [5]: 1370 nM

Nc1ccc(Oc2c(F)c(F)c(C(F)(F)F)c(F)c2F)cc1
Activity [2]: 18.1% | Activity ([1]; filed as opener): 86.8% | remaining at 0.5 h, 1 µM [3]: 18.6% | remaining at 0.5 h, 1 µM [4]: 7.4%

Oc1ccc(O)c(O)c1
Activity [6]: inactive

COc1ccc(Oc2c(F)c(F)c(Cl)c(F)c2F)c(O)c1
Activity [6]: inactive

Fc1c(F)c(C(F)(F)F)c(F)c(F)c1Oc1ccc2[nH]cnc2c1
Activity [1]: 1%

CCCNc1ccc(Oc2c(F)c(F)c(C(F)(F)F)c(F)c2F)c(O)c1
Activity [1]: 28.1%

Fc1c(F)c(C(F)(F)F)c(F)c(F)c1Oc1ccc2[nH]ncc2c1
Activity [1]: 1%

CN(C)c1ccc(Oc2c(F)c(F)c(C(F)(F)F)c(F)c2F)c(O)c1
Activity [1]: 10.2%

Oc1ccc(Oc2ccc(F)c(C(F)(F)F)c2)c(O)c1
Activity [1]: 19.8%

Cc1cccc(NC(=O)c2sc(=S)n3c2[nH]c(=O)c2cc(Br)ccc23)c1
EC50 [7]: 2700 nM | EC50 [8]: 2700 nM

O=[N+]([O-])c1ccc(Oc2c(F)c(F)c(C(F)(F)F)c(F)c2F)c(O)c1
Activity [1]: 19.3%

COc1cc(N)ccc1Oc1c(F)c(F)c(C(F)(F)F)c(F)c1F.Cl
AUC(0-t) [9]: 668 ng·h/mL | Cmax [10]: 182 ng/mL | clearance [11]: 25 mL/min/kg | AUC(0-t) [12]: 6260 ng·h/mL | Tmax [13]: 1.2 h | half-life [14]: 2.1 h | bioavailability [15]: 9.9% | Vd [16]: 3.5 L/kg | half-life [17]: 6.4 h

Oc1ccc(Oc2ccc(Cl)c(F)c2)c(O)c1
Activity [1]: 8.1%

NCCNc1ccc(Oc2c(F)c(F)c(C(F)(F)F)c(F)c2F)c(O)c1
Activity [1]: 3.3%

Nc1ccc(Oc2c(F)c(F)c(C(F)(F)F)c(F)c2F)c(N)c1
Activity [1]: 10.3%

COc1ccc(Oc2c(F)c(F)c(Cl)c(F)c2F)c(OC)c1
Activity [6]: inactive

Oc1ccc(Oc2c(F)cc(C(F)(F)F)cc2F)c(O)c1
Activity ([1]; filed as opener): 66.9%

NC(=O)c1ccc(Oc2c(F)c(F)c(C(F)(F)F)c(F)c2F)cc1
Activity [6]: inactive

Nc1ccc(Oc2c(F)c(F)c(C(F)(F)F)c(F)c2F)c(C(F)(F)F)c1
Activity [1]: 38%

COc1cc(N)ccc1Oc1c(F)c(F)c(C(F)(F)F)c(F)c1F
remaining at 1 h, 1 µM [18]: 30% | remaining at 1 h, 1 µM [19]: 88.8% | remaining at 0.5 h, 1 µM [3]: 7.2% | remaining at 0.5 h, 1 µM [4]: 87.1% | Papp at 4 h [20]: 73.6 ×10⁻⁶ cm/s | EC50 [5]: 1210 nM

COc1cc(O)ccc1Oc1c(F)c(F)c(Cl)c(F)c1F
Activity [6]: inactive

Nc1ccc(Oc2c(F)c(F)c(C(F)(F)F)c(F)c2F)c(OC(F)(F)F)c1
Activity [1]: 33%

Cl.Cl.Oc1cc(NCCCCN2CCOCC2)ccc1Oc1c(F)c(F)c(C(F)(F)F)c(F)c1F
AUC(0-t) [9]: 223 ng·h/mL | Activity (Rattus norvegicus [21]): 43.2% | Activity (Rattus norvegicus [22]): 49.2% | Cmax [10]: 72.1 ng/mL | Tmax [13]: 0.7 h | half-life [17]: 3.7 h | Activity [23]: Non-toxic

Oc1cc(NCCCCCN2CCOCC2)ccc1Oc1c(F)c(F)c(C(F)(F)F)c(F)c1F
remaining at 0.5 h, 1 µM [3]: 30.7% | remaining at 0.5 h, 1 µM [4]: 96.9% | Papp at 4 h [20]: 56.6 ×10⁻⁶ cm/s | EC50 [5]: 2820 nM | EC50 [24]: 970 nM

Nc1cc(O)ccc1Oc1c(F)c(F)c(C(F)(F)F)c(F)c1F
Activity [1]: 4.7%

Nc1ccc(Oc2c(F)c(F)c(C(F)(F)F)c(F)c2F)cn1
Activity [6]: inactive

Oc1ccc(Oc2c(F)c(F)c(Cl)c(F)c2F)cc1
Activity [1]: 6.1%
